US11666050B2, “Enhancing the antimicrobial activity of biocides with polymers” (BASF SE, priority 2012, dated 2023)

What was measured:
Format in all cases: cell-based
[1] = system: Pseudomonas aeruginosa ATCC 15442; assay: Bactericidal activity, method EN1040 (Example 1, Table 1); conditions: biocide alone; for log redn. after contact time 1 hr: contact time 1 hr; for log redn. after contact time 3 hrs: contact time 3 hrs; for log redn. after contact time 6 hrs: contact time 6 hrs; for log redn. after contact time 24 hrs: contact time 24 hrs
Text: (§1) Lines in grey shading indicate control sample (no PEI or no biocide added): […]

[2] = system: Staphylococcus aureus ATCC 6538; assay: Bactericidal activity, method EN1040 (Example 1, Table 2); conditions: biocide alone; for log redn. after contact time 1 hr: contact time 1 hr; for log redn. after contact time 3 hrs: contact time 3 hrs; for log redn. after contact time 6 hrs: contact time 6 hrs; for log redn. after contact time 24 hrs: contact time 24 hrs
Text: as §1

[3] = system: Staphylococcus aureus ATCC 6538; assay: Bactericidal activity, method EN1276 (Example 1, Table 3); conditions: biocide 250 ppm a.i., no PEI (control), S. aureus ATCC 6538
Text: as §1

O=[N+]([O-])C(Br)(CO)CO [Bronopol, 2-Bromo-2-nitropropane-1,3-diol]
log redn. after contact time 1 hr ([1]; 0.1% a.i.): <1 log
log redn. after contact time 3 hrs ([1]; 0.1% a.i.): <1 log
log redn. after contact time 6 hrs ([1]; 0.1% a.i.): 4.2 log
log redn. after contact time 24 hrs ([1]; 0.1% a.i.): 2.4 log
log redn. after contact time 1 hr ([2]; 0.1% a.i.): <1 log
log redn. after contact time 3 hrs ([2]; 0.1% a.i.): <1 log
log redn. after contact time 6 hrs ([2]; 0.1% a.i.): <1 log
log redn. after contact time 24 hrs ([2]; 0.1% a.i.): 2.4 log

Oc1cc(Cl)ccc1Oc1ccc(Cl)cc1 [Tinosan® HP 100, Hydroxydichlorodiphenyl Ether]
log redn. after Contact time 5 min [3]: 4.9 log redn.

OCCOc1ccccc1 [phenoxyethanol, 2-Phenoxyethanol]
log redn. after contact time 1 hr ([1]; 1% a.i.): <1 log
log redn. after contact time 3 hrs ([1]; 1% a.i.): 1.3 log
log redn. after contact time 6 hrs ([1]; 1% a.i.): 2.8 log
log redn. after contact time 24 hrs ([1]; 1% a.i.): >6 log
log redn. after contact time 1 hr ([2]; 1% a.i.): <1 log
log redn. after contact time 3 hrs ([2]; 1% a.i.): <1 log
log redn. after contact time 6 hrs ([2]; 1% a.i.): <1 log
log redn. after contact time 24 hrs ([2]; 1% a.i.): 1.1 log
